# In paper PMC11843331, “Metal-Triggered FAD Reduction in D-2-Hydroxyglutarate Dehydrogenase from Pseudomonas aeruginosa PAO1” (ACS Bio & Med Chem Au, 2024):
# Target: T1, PaD2HGDH; Pseudomonas aeruginosa D-2-hydroxyglutarate dehydrogenase (Pseudomonas aeruginosa, UniProt Q9I6H4)
# T1 construct: gene PA0317; recombinant from pET20b(+) harboring PA0317 (GenScript), purified to homogeneity; FAD- and Zn2+-containing
# T1 sequence (Q9I6H4 1-464): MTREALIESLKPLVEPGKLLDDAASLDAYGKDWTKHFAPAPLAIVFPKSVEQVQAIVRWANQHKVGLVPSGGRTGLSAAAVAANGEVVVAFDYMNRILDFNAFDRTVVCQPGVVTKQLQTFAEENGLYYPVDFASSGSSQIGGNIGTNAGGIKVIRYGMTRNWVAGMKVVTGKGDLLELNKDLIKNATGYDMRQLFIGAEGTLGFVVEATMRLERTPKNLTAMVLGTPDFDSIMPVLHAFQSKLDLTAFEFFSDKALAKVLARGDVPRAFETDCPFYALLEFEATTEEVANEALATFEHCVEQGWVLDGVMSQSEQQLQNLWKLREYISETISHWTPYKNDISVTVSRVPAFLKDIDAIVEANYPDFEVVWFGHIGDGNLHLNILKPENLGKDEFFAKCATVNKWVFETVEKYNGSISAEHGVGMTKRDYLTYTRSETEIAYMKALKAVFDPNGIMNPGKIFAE
# Assay: UV-visible absorption of enzyme-bound flavin, anaerobic reduction by D-malate
# Type: binding
# Conditions: 1 mM ZnCl2, pH 10.0, 25 °C; co-purified bound cofactor
compound,measurement,value
Cc1cc2nc3c(=O)[nH]c(=O)nc-3n(C[C@H](O)[C@H](O)[C@H](O)COP(=O)(O)OP(=O)(O)OC[C@H]3O[C@@H](n4cnc5c(N)ncnc54)[C@H](O)[C@@H]3O)c2cc1C [FAD],"UV-visible absorption of enzyme-bound flavin, anaerobic reduction by D-malate","characteristic properties of a fully reduced PaD2HGDH-bound flavin, as previously reported"
